Data reported in ChEMBL document CHEMBL3045374, “Selective herbicide activity of 2,5-di(benzylamine)-p-benzoquinone against the monocot weed Echinochloa crusgalli. An in vivo analysis of photosynthesis and growth” (2005).
Active and inactive are the calls of the source. The rule behind the calls is not given here.

Assays:
[1] = target: T1, Photosystem I iron-sulfur center (Panicum virgatum) (UniProt G3EFH9); assay: Inhibition of PSI in Echinochloa crus-galli (barnyard grass) assessed as 50% compound concentration required to accept electrons
T1 sequence (whole entry): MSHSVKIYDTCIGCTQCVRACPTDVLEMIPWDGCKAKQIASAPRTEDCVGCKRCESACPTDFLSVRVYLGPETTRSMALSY

Echinochloa crus-galli [2] = assay: Herbicidal activity against Echinochloa crus-galli (barnyard grass) assessed as chlorophyll loss at 40 uM measured after 5 days treatment (reference value: 0%); type: functional
Echinochloa crus-galli [3] = assay: Herbicidal activity against Echinochloa crus-galli (barnyard grass) assessed as electrolyte leakage at 40 uM measured after 5 days treatment (reference value: 100%); type: functional
Physalis ixocarpa [4] = assay: Herbicidal activity against Physalis ixocarpa assessed as reduction in dry biomass at 40 uM measured after 14 days treatment; type: functional, organism-based
Phaseolus vulgaris [5] = assay: Herbicidal activity against Phaseolus vulgaris assessed as reduction in dry biomass at 40 uM measured after 14 days treatment; type: functional, organism-based
Echinochloa crus-galli [6] = assay: Herbicidal activity against Echinochloa crus-galli (barnyard grass) assessed as reduction in dry biomass at 40 uM measured after 14 days treatment; type: functional; conditions: 336 h
Zea mays [7] = assay: Herbicidal activity against Zea mays (maize) assessed as reduction in dry biomass at 40 uM measured after 14 days treatment; type: functional; conditions: 336 h
[8] = target: Photosystem II reaction center protein M (Pennisetum americanum) (UniProt Q672I5); assay: Inhibition of PSII in Echinochloa crus-galli (barnyard grass) using leaf assessed as inhibition of electron transport at 40 uM measured after 7 to 14 days
Solanum lycopersicum = assay: Induction of chlorophyll a fluorescence curve in green Solanum lycopersicum (tomato) leaf relative to control; type: functional, organism-based
Fabaceae = assay: Induction of chlorophyll a fluorescence curve in Fabaceae (bean) leaf relative to control; type: functional, organism-based
Zea mays [9] = assay: Induction of chlorophyll a fluorescence curve in Zea mays (maize) leaf relative to control; type: functional, organism-based
[10] = target: T1, Photosystem I iron-sulfur center (Panicum virgatum); assay: Inhibition of PSI in Echinochloa crus-galli (barnyard grass) using dark-adapted leaf assessed as photosynthetic electron transport at 40 uM measured after 1 hr by chlorophyll fluorescence induction curve assay
[11] = target: Photosystem II reaction center protein M (Pennisetum americanum) (UniProt Q672I5); assay: Inhibition of PSII in Echinochloa crus-galli (barnyard grass) using dark-adapted leaf assessed as photosynthetic electron transport at 40 uM measured after 1 hr by chlorophyll fluorescence induction curve assay
Physalis ixocarpa [12] = assay: Herbicidal activity against Physalis ixocarpa using youngest fully expanded leaf assessed as intracellular CO2 concentration at 40 uM at 25 to 28 degC measured after 120 hr (reference value: 254.0 +/- 8.6 uL/L); type: functional
Phaseolus vulgaris [13] = assay: Herbicidal activity against Phaseolus vulgaris using youngest fully expanded leaf assessed as intracellular CO2 concentration at 40 uM at 25 to 28 degC measured after 120 hr (reference value: 256.0 +/- 5.8 uL/L); type: functional
Echinochloa crus-galli [14] = assay: Herbicidal activity against Echinochloa crus-galli (barnyard grass) using youngest fully expanded leaf assessed as intracellular CO2 concentration at 40 uM at 25 to 28 degC measured after 120 hr (reference value: 171.0 +/- 23.1 uL/L); type: functional
Zea mays [15] = assay: Herbicidal activity against Zea mays (maize) using youngest fully expanded leaf assessed as intracellular CO2 concentration at 40 uM at 25 to 28 degC measured after 120 hr (reference value: 196.1 +/- 4.9 uL/L); type: functional
Physalis ixocarpa [16] = assay: Herbicidal activity against Physalis ixocarpa using youngest fully expanded leaf assessed as stomatal conductance at 40 uM at 25 to 28 degC measured after 120 hr (reference value: 184.6 +/- 36.6 mmol/m'2/s); type: functional
Phaseolus vulgaris [17] = assay: Herbicidal activity against Phaseolus vulgaris using youngest fully expanded leaf assessed as stomatal conductance at 40 uM at 25 to 28 degC measured after 120 hr (reference value: 161.8 +/- 10 mmol/m'2/s); type: functional
Echinochloa crus-galli [18] = assay: Herbicidal activity against Echinochloa crus-galli (barnyard grass) using youngest fully expanded leaf assessed as stomatal conductance at 40 uM at 25 to 28 degC measured after 120 hr (reference value: 100.7 +/- 8.6 mmol/m'2/s); type: functional
Zea mays [19] = assay: Herbicidal activity against Zea mays (maize) using youngest fully expanded leaf assessed as stomatal conductance at 40 uM at 25 to 28 degC measured after 120 hr (reference value: 103.9 +/- 6.5 mmol/m'2/s); type: functional
Physalis ixocarpa [20] = assay: Herbicidal activity against Physalis ixocarpa using youngest fully expanded leaf assessed as inhibition of CO2 assimilation at 40 uM at 25 to 28 degC measured after 120 hr (reference value: 6.3 +/- 0.6 umol/m'2/s); type: functional
Phaseolus vulgaris [21] = assay: Herbicidal activity against Phaseolus vulgaris using youngest fully expanded leaf assessed as inhibition of CO2 assimilation at 40 uM at 25 to 28 degC measured after 120 hr (reference value: 7.2 +/- 0.3 umol/m'2/s); type: functional
Echinochloa crus-galli [22] = assay: Herbicidal activity against Echinochloa crus-galli (barnyard grass) using youngest fully expanded leaf assessed as inhibition of CO2 assimilation at 40 uM at 25 to 28 degC measured after 120 hr (reference value: 10.7 +/- 1.1 umol/m'2/s); type: functional
Zea mays [23] = assay: Herbicidal activity against Zea mays (maize) using youngest fully expanded leaf assessed as inhibition of CO2 assimilation at 40 uM at 25 to 28 degC measured after 120 hr (reference value: 8 +/- 0.4 umol/m'2/s); type: functional
Phaseolus vulgaris [24] = assay: Herbicidal activity against Phaseolus vulgaris using youngest fully expanded leaf assessed as inhibition of stomatal conductance at 40 uM at 25 to 28 degC measured after 120 hr; type: functional, organism-based
Echinochloa crus-galli [25] = assay: Herbicidal activity against Echinochloa crus-galli (barnyard grass) using youngest fully expanded leaf assessed as inhibition of CO2 assimilation at 40 uM at 25 to 28 degC measured after 1 hr; type: functional
Echinochloa crus-galli [26] = assay: Herbicidal activity against Echinochloa crus-galli (barnyard grass) using youngest fully expanded leaf assessed as inhibition of stomatal conductance at 40 uM at 25 to 28 degC measured after 1 hr; type: functional
Echinochloa crus-galli [27] = assay: Herbicidal activity against Echinochloa crus-galli (barnyard grass) using youngest fully expanded leaf assessed as inhibition of stomatal conductance at 40 uM at 25 to 28 degC measured after 20 hr; type: functional
Echinochloa crus-galli [28] = assay: Herbicidal activity against Echinochloa crus-galli (barnyard grass) using youngest fully expanded leaf assessed as inhibition of CO2 assimilation at 40 uM at 25 to 28 degC measured after 24 hr; type: functional
Echinochloa crus-galli [29] = assay: Herbicidal activity against Echinochloa crus-galli (barnyard grass) using youngest fully expanded leaf assessed as inhibition of stomatal conductance at 40 uM at 25 to 28 degC measured after 120 hr; type: functional, organism-based
Phaseolus vulgaris [30] = assay: Herbicidal activity against Phaseolus vulgaris using youngest fully expanded leaf assessed as inhibition of CO2 assimilation at 40 uM at 25 to 28 degC measured after 120 hr; type: functional, organism-based
Echinochloa crus-galli [31] = assay: Herbicidal activity against Echinochloa crus-galli (barnyard grass) using youngest fully expanded leaf assessed as inhibition of CO2 assimilation at 40 uM at 25 to 28 degC measured after 5 days; type: functional, organism-based

Q: With `O=C1C=C(NCc2ccccc2)C(=O)C=C1NCc1ccccc1` as the compound, how does the Activity [1] read?
A: 0.23 µM

Q: What about the Activity (Echinochloa crus-galli [2]) of the same compound?
A: 3.5%

Q: What about the Activity (Echinochloa crus-galli [3]) of the same compound?
A: 135.6%

Q: What about the inhibition (Physalis ixocarpa [4]) of the same compound?
A: inactive

Q: And the inhibition (Phaseolus vulgaris [5])?
A: inactive

Q: And the inhibition at 40 µM (Echinochloa crus-galli [6])?
A: 76.5%

Q: And the inhibition at 40 µM (Zea mays [7])?
A: 60%

Q: And the inhibition [8]?
A: 44%

Q: What about the Activity (Solanum lycopersicum) of the same compound?
A: inactive

Q: And the Activity (Fabaceae)?
A: inactive

Q: And the Activity (Zea mays [9])?
A: inactive

Q: And the inhibition [10]?
A: Active

Q: What about the inhibition [11] of the same compound?
A: inactive

Q: What about the Activity (Physalis ixocarpa [12]) of the same compound?
A: 254.3 uL/L

Q: What about the Activity (Phaseolus vulgaris [13]) of the same compound?
A: 254 uL/L

Q: What about the Activity (Echinochloa crus-galli [14]) of the same compound?
A: 221 uL/L

Q: And the Activity (Zea mays [15])?
A: 212 uL/L

Q: And the Activity (Physalis ixocarpa [16])?
A: 151.2 mmol/m2/s

Q: And the Activity (Phaseolus vulgaris [17])?
A: 150 mmol/m2/s

Q: What about the Activity (Echinochloa crus-galli [18]) of the same compound?
A: 75.3 mmol/m2/s

Q: And the Activity (Zea mays [19])?
A: 82.4 mmol/m2/s

Q: And the Activity (Physalis ixocarpa [20])?
A: 5.6 micromol/m2/s

Q: What about the Activity (Phaseolus vulgaris [21]) of the same compound?
A: 7 micromol/m2/s

Q: And the Activity (Echinochloa crus-galli [22])?
A: 4.2 micromol/m2/s

Q: And the Activity (Zea mays [23])?
A: 7.2 micromol/m2/s

Q: And the inhibition (Phaseolus vulgaris [24])?
A: inactive

Q: What about the inhibition at 40 µM (Echinochloa crus-galli [25]) of the same compound?
A: 80%

Q: What about the inhibition at 40 µM (Echinochloa crus-galli [26]) of the same compound?
A: 45%

Q: And the inhibition at 40 µM (Echinochloa crus-galli [27])?
A: 62%

Q: What about the inhibition at 40 µM (Echinochloa crus-galli [28]) of the same compound?
A: 84%

Q: What about the inhibition (Echinochloa crus-galli [29]) of the same compound?
A: Active

Q: What about the inhibition (Phaseolus vulgaris [30]) of the same compound?
A: inactive

Q: `CC(NC1=CC(=O)C(NC(C)c2ccccc2)=CC1=O)c1ccccc1` (configuration not stated) was tested. Which inhibition (Phaseolus vulgaris [24]) did it give?
A: inactive

Q: And the inhibition at 40 µM (Echinochloa crus-galli [25])?
A: 80%

Q: And the inhibition at 40 µM (Echinochloa crus-galli [26])?
A: 45%

Q: And the inhibition at 40 µM (Echinochloa crus-galli [27])?
A: 62%

Q: And the inhibition at 40 µM (Echinochloa crus-galli [28])?
A: 84%

Q: And the inhibition (Phaseolus vulgaris [30])?
A: inactive

Q: For `O=C1C=C(Nc2ccccc2)C(=O)C=C1Nc1ccccc1`, which inhibition (Phaseolus vulgaris [24]) is on record?
A: inactive

Q: What about the inhibition at 40 µM (Echinochloa crus-galli [25]) of the same compound?
A: 80%

Q: And the inhibition at 40 µM (Echinochloa crus-galli [26])?
A: 45%

Q: And the inhibition at 40 µM (Echinochloa crus-galli [27])?
A: 62%

Q: What about the inhibition at 40 µM (Echinochloa crus-galli [28]) of the same compound?
A: 84%

Q: What about the inhibition (Echinochloa crus-galli [31]) of the same compound?
A: Active

Q: And the inhibition (Phaseolus vulgaris [30])?
A: inactive

Q: `C[C@H](NC1=CC(=O)C(N[C@@H](C)[C@H](O)c2ccccc2)=CC1=O)[C@H](O)c1ccccc1` was tested. Which inhibition (Phaseolus vulgaris [24]) did it give?
A: inactive

Q: What about the inhibition at 40 µM (Echinochloa crus-galli [25]) of the same compound?
A: 80%

Q: What about the inhibition at 40 µM (Echinochloa crus-galli [26]) of the same compound?
A: 45%

Q: And the inhibition at 40 µM (Echinochloa crus-galli [27])?
A: 62%

Q: What about the inhibition at 40 µM (Echinochloa crus-galli [28]) of the same compound?
A: 84%

Q: What about the inhibition (Phaseolus vulgaris [30]) of the same compound?
A: inactive

Q: What does the source list for `C[n+]1ccc(-c2cc[n+](C)cc2)cc1` [PARAQUAT]?
A: Activity [1]: 110 µM; Activity (Echinochloa crus-galli [2]): 44.3%; Activity (Echinochloa crus-galli [3]): 438.59%

Q: How did the inhibition (Phaseolus vulgaris [24]) turn out when `COc1ccccc1NC1=CC(=O)C(Nc2ccccc2OC)=CC1=O` was run?
A: inactive

Q: And the inhibition at 40 µM (Echinochloa crus-galli [25])?
A: 80%

Q: What about the inhibition at 40 µM (Echinochloa crus-galli [26]) of the same compound?
A: 45%

Q: What about the inhibition at 40 µM (Echinochloa crus-galli [27]) of the same compound?
A: 62%

Q: What about the inhibition at 40 µM (Echinochloa crus-galli [28]) of the same compound?
A: 84%

Q: What about the inhibition (Phaseolus vulgaris [30]) of the same compound?
A: inactive

Q: For `O=C1C=C(Nc2ccccc2O)C(=O)C=C1Nc1ccccc1O`, which inhibition (Phaseolus vulgaris [24]) is on record?
A: inactive

Q: What about the inhibition at 40 µM (Echinochloa crus-galli [25]) of the same compound?
A: 80%

Q: And the inhibition at 40 µM (Echinochloa crus-galli [26])?
A: 45%

Q: And the inhibition at 40 µM (Echinochloa crus-galli [27])?
A: 62%

Q: What about the inhibition at 40 µM (Echinochloa crus-galli [28]) of the same compound?
A: 84%

Q: What about the inhibition (Echinochloa crus-galli [31]) of the same compound?
A: Active

Q: What about the inhibition (Phaseolus vulgaris [30]) of the same compound?
A: inactive
